Experimental data: PubChem BioAssay (NCI)
Values joined by “and” are separate entries in the source; they are usually repeats but may differ in a detail not shown here. Equal entries are not always repeated.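 Values below derive from 48-hour exposures of cells grown in 96-well plates, with endpoints linearly interpolated between the two concentrations bracketing the appropriate inhibition level. Abbreviation: GI50, concentration required for 50% inhibition of growth. TGI: concentration producing complete growth inhibition.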

Assays:
Experiment in all cases: inhibition of tumour cell growth, NCI panel, 48 h
MCF7 breast = tested on: MCF7 breast
SW-620 colon = tested on: SW-620 colon
HCC-2998 colon = tested on: HCC-2998 colon
MOLT-4 leukemia = tested on: MOLT-4 leukemia
SF-268 CNS = tested on: SF-268 CNS
ACHN renal = tested on: ACHN renal
SF-295 CNS = tested on: SF-295 CNS
SF-539 CNS = tested on: SF-539 CNS
HCT-116 colon = tested on: HCT-116 colon
KM12 colon = tested on: KM12 colon
K-562 leukemia = tested on: K-562 leukemia
MDA-MB-231 breast = tested on: MDA-MB-231 breast
OVCAR-4 ovarian = tested on: OVCAR-4 ovarian
SK-MEL-5 melanoma = tested on: SK-MEL-5 melanoma
OVCAR-5 ovarian = tested on: OVCAR-5 ovarian
DU-145 prostate = tested on: DU-145 prostate
EKVX NSCLC = tested on: EKVX NSCLC
TK-10 renal = tested on: TK-10 renal
U251 CNS = tested on: U251 CNS
SNB-19 CNS = tested on: SNB-19 CNS
NCI-H226 lung = tested on: NCI-H226 lung
SN12C renal = tested on: SN12C renal
CAKI-1 renal = tested on: CAKI-1 renal
M14 melanoma = tested on: M14 melanoma
A549 NSCLC = tested on: A549 NSCLC
SK-OV-3 ovarian = tested on: SK-OV-3 ovarian
SNB-75 CNS = tested on: SNB-75 CNS
UACC-257 melanoma = tested on: UACC-257 melanoma
HOP-92 NSCLC = tested on: HOP-92 NSCLC
IGROV1 ovarian = tested on: IGROV1 ovarian
PC-3 prostate = tested on: PC-3 prostate
RXF 393 renal = tested on: RXF 393 renal
HL-60(TB) leukemia = tested on: HL-60(TB) leukemia
HOP-62 NSCLC = tested on: HOP-62 NSCLC
MDA-N = tested on: MDA-N
A498 renal = tested on: A498 renal
HT29 colon = tested on: HT29 colon
UO-31 renal = tested on: UO-31 renal
CCRF-CEM leukemia = tested on: CCRF-CEM leukemia
NCI-H522 lung = tested on: NCI-H522 lung
UACC-62 melanoma = tested on: UACC-62 melanoma
SR leukemia = tested on: SR leukemia
NCI/ADR-RES ovarian = tested on: NCI/ADR-RES ovarian
HCT-15 colon = tested on: HCT-15 colon
NCI-H23 lung = tested on: NCI-H23 lung
BT-549 breast = tested on: BT-549 breast
LOX IMVI melanoma = tested on: LOX IMVI melanoma
OVCAR-3 ovarian = tested on: OVCAR-3 ovarian
HS 578T breast = tested on: HS 578T breast
RPMI-8226 leukemia = tested on: RPMI-8226 leukemia
786-0 renal = tested on: 786-0 renal
NCI-H460 lung = tested on: NCI-H460 lung
COLO 205 colon = tested on: COLO 205 colon
MDA-MB-435 = tested on: MDA-MB-435
SK-MEL-2 melanoma = tested on: SK-MEL-2 melanoma
SK-MEL-28 melanoma = tested on: SK-MEL-28 melanoma
MALME-3M melanoma = tested on: MALME-3M melanoma
T-47D breast = tested on: T-47D breast
OVCAR-8 ovarian = tested on: OVCAR-8 ovarian

Compound `CC[C@@]1(O)C(=O)OCc2c1cc1n(c2=O)Cc2c-1nc1cc3c(cc1c2C)OCO3` has a GI50 (MCF7 breast) of under 0.1 nM, a TGI (MCF7 breast) of 299 nM and a GI50 (SW-620 colon) of under 0.1 nM. The TGI (SW-620 colon) was over 100 µM, the GI50 (HCC-2998 colon) was 1.09 nM and the TGI (HCC-2998 colon) was 83.7 nM and 141 nM. It also gave a GI50 (MOLT-4 leukemia) of under 0.1 nM, a GI50 (SF-268 CNS) of 1.08 nM and a TGI (SF-268 CNS) of 13.6 nM. It also gave a GI50 (ACHN renal) of under 0.1 nM, a TGI (ACHN renal) of 60.1 nM and a GI50 (SF-295 CNS) of under 0.1 nM. The GI50 (SF-539 CNS) was under 0.1 nM, the TGI (SF-539 CNS) was 0.149 nM and the GI50 (HCT-116 colon) was 18.1 nM. The TGI (HCT-116 colon) was 15.1 µM, the GI50 (KM12 colon) was 24.1 nM and the TGI (KM12 colon) was over 100 µM. The GI50 (K-562 leukemia) was 0.488 nM, the TGI (K-562 leukemia) was over 100 µM and the GI50 (MDA-MB-231 breast) was 14.7 nM. The TGI (MDA-MB-231 breast) was over 100 µM, the GI50 (OVCAR-4 ovarian) was 24.4 nM and 17.4 nM and the TGI (OVCAR-4 ovarian) was over 100 µM. For the same compound, the GI50 (SK-MEL-5 melanoma) was under 0.1 nM, the TGI (SK-MEL-5 melanoma) was 55.9 nM and the GI50 (OVCAR-5 ovarian) was 69.4 nM. The TGI (OVCAR-5 ovarian) was 37.9 nM, the GI50 (DU-145 prostate) was under 0.1 nM and the TGI (DU-145 prostate) was over 100 µM. For the same compound, the TGI (EKVX NSCLC) was 818 nM, the GI50 (TK-10 renal) was 43 nM and 31.1 nM and the TGI (TK-10 renal) was 3.56 µM. It also gave a GI50 (U251 CNS) of under 0.1 nM, a GI50 (SNB-19 CNS) of 0.473 nM and a TGI (SNB-19 CNS) of 13.1 nM. For the same compound, the GI50 (NCI-H226 lung) was under 0.1 nM, the TGI (NCI-H226 lung) was 19.5 nM and the GI50 (SN12C renal) was under 0.1 nM. The TGI (SN12C renal) was 27 µM, the GI50 (CAKI-1 renal) was under 0.1 nM and the TGI (CAKI-1 renal) was 235 nM and 122 nM. The GI50 (M14 melanoma) was under 0.1 nM, the TGI (M14 melanoma) was 1010 nM and the GI50 (A549 NSCLC) was under 0.1 nM. For the same compound, the TGI (A549 NSCLC) was 73.7 nM, the GI50 (SK-OV-3 ovarian) was under 0.1 nM and the TGI (SK-OV-3 ovarian) was 250 nM and 331 nM. It also gave a GI50 (SNB-75 CNS) of 1.23 nM, a TGI (SNB-75 CNS) of 947 nM and a GI50 (UACC-257 melanoma) of 15.9 nM. For the same compound, the TGI (UACC-257 melanoma) was 278 nM, the TGI (HOP-92 NSCLC) was 78.2 nM and the GI50 (IGROV1 ovarian) was 35.1 nM. The GI50 (PC-3 prostate) was 25.4 nM, the TGI (PC-3 prostate) was over 100 µM and the GI50 (RXF 393 renal) was 0.755 nM. The TGI (RXF 393 renal) was 141 nM and 17.5 nM, the GI50 (HL-60(TB) leukemia) was under 0.1 nM and the GI50 (HOP-62 NSCLC) was under 0.1 nM. The TGI (HOP-62 NSCLC) was 314 nM and 238 nM, the TGI (MDA-N) was over 100 µM and the GI50 (A498 renal) was 0.257 nM. For the same compound, the TGI (A498 renal) was 27.2 nM and 28.5 nM, the GI50 (HT29 colon) was under 0.1 nM and the TGI (HT29 colon) was over 100 µM. For the same compound, the GI50 (UO-31 renal) was under 0.1 nM, the TGI (UO-31 renal) was 41.5 nM and the GI50 (CCRF-CEM leukemia) was under 0.1 nM. The GI50 (NCI-H522 lung) was 0.159 nM, the GI50 (UACC-62 melanoma) was under 0.1 nM and the TGI (UACC-62 melanoma) was 14.3 nM. It also gave a GI50 (SR leukemia) of under 0.1 nM, a TGI (SR leukemia) of 0.207 nM and a GI50 (NCI/ADR-RES ovarian) of under 0.1 nM. It also gave a TGI (NCI/ADR-RES ovarian) of over 100 µM, a GI50 (HCT-15 colon) of 9.36 nM and a TGI (HCT-15 colon) of over 100 µM. The GI50 (NCI-H23 lung) was under 0.1 nM, the TGI (NCI-H23 lung) was 105 nM and 11.6 nM and the GI50 (BT-549 breast) was 20.5 nM. The GI50 (LOX IMVI melanoma) was under 0.1 nM, the TGI (LOX IMVI melanoma) was 31.9 nM and 30.6 nM and the GI50 (OVCAR-3 ovarian) was 75.8 nM and 11.7 nM. The TGI (OVCAR-3 ovarian) was over 100 µM, the GI50 (HS 578T breast) was 37.4 µM and the TGI (HS 578T breast) was over 100 µM. It also gave a GI50 (RPMI-8226 leukemia) of under 0.1 nM, a TGI (RPMI-8226 leukemia) of 230 nM and a GI50 (786-0 renal) of under 0.1 nM. The TGI (786-0 renal) was 8.15 µM, the GI50 (NCI-H460 lung) was under 0.1 nM and the TGI (NCI-H460 lung) was 86.8 nM and 13.5 nM. The GI50 (COLO 205 colon) was 102 nM, the TGI (COLO 205 colon) was over 100 µM and the GI50 (MDA-MB-435) was 1.6 nM. For the same compound, the TGI (SK-MEL-2 melanoma) was 27.1 nM, the GI50 (SK-MEL-28 melanoma) was 39.5 nM and 76.5 nM and the TGI (SK-MEL-28 melanoma) was over 100 µM. It also gave a GI50 (MALME-3M melanoma) of 0.457 nM, a TGI (MALME-3M melanoma) of 3.92 µM and a GI50 (T-47D breast) of under 0.1 nM. For the same compound, the GI50 (OVCAR-8 ovarian) was under 0.1 nM.
